The text below walks through data of ChEMBL document CHEMBL1130908, “Diastereoselective two-directional synthesis and cation transport ability of the central tristetrahydrofuranyl unit of meso polyether glabrescol as naturally occurring podand” (Bioorg Med Chem Lett, 1998).

The experiment can be described thus: Compound was evaluated for cytotoxic activity against KB cells. The format is functional, cell-based. The following applies: Homo sapiens.

In brackets after ≈: the same amount, converted by molar mass.

With `CC(=O)O[C@@H](CC[C@@H](O)[C@]1(C)CC[C@H]([C@@](C)(O)CCC=C(C)C)O1)[C@@]1(C)CC[C@H]([C@@](C)(O)CCC=C(C)C)O1`, the concentration for half-maximal inhibition (IC50) – broadly, the midpoint of a concentration-inhibition curve – was found to be 0.52 mg/L (≈ 0.941 µM).

For the compound `CC(C)=CCC[C@](C)(O)[C@H]1CC[C@](C)([C@@H]2CC[C@H]([C@]3(C)CC[C@@H]([C@](C)(O)CCC=C(C)C)O3)O2)O1`, the IC50 amounted to 7 mg/L (≈ 14.2 µM).

`CC(C)(O)/C=C/C[C@](C)(O)[C@H]1CC[C@@](C)([C@H]2CC[C@H]([C@]3(C)CC[C@H]([C@@](C)(O)C/C=C/C(C)(C)OO)O3)O2)O1` registered a 50% inhibitory concentration (IC50) of 5.3 mg/L (≈ 9.8 µM).

Compound `CC(=O)O[C@@H](CC[C@@H](OC(C)=O)[C@]1(C)CC[C@H]([C@@](C)(O)CCC=C(C)C)O1)[C@@]1(C)CC[C@H]([C@@](C)(O)CCC=C(C)C)O1` displayed a 50% inhibitory concentration (IC50) of over 100 mg/L.
